In ChEMBL document CHEMBL1135130, “Substituted tetrahydrofuroyl-1-phenylalanine derivatives as potent and specific VLA-4 antagonists” (Bioorg Med Chem Lett, 2002):
pIC50: −log10 of the molar value.

How the values were obtained:
[1] = target: T1, Integrin alpha-4/beta-1 (Homo sapiens, UniProt P05556+P13612); test: Inhibition of alpha4-beta1 (very late) antigen binding with VCAM-1 immunoglobulin; format: protein-complex assay
[2] = target: Integrin alpha-4/beta-7 (Homo sapiens) (UniProt P13612+P26010); test: Selectivity for alpha4-beta7 to that of alpha4-beta1; format: protein-complex assay
[3] = target: T2, Integrin alpha-4/beta-7 (Homo sapiens, UniProt P13612+P26010); test: Inhibition of alpha4-beta7 antigen with MAdCAM immunoglobulin; format: protein-complex assay
T2 sequence (P13612 whole entry): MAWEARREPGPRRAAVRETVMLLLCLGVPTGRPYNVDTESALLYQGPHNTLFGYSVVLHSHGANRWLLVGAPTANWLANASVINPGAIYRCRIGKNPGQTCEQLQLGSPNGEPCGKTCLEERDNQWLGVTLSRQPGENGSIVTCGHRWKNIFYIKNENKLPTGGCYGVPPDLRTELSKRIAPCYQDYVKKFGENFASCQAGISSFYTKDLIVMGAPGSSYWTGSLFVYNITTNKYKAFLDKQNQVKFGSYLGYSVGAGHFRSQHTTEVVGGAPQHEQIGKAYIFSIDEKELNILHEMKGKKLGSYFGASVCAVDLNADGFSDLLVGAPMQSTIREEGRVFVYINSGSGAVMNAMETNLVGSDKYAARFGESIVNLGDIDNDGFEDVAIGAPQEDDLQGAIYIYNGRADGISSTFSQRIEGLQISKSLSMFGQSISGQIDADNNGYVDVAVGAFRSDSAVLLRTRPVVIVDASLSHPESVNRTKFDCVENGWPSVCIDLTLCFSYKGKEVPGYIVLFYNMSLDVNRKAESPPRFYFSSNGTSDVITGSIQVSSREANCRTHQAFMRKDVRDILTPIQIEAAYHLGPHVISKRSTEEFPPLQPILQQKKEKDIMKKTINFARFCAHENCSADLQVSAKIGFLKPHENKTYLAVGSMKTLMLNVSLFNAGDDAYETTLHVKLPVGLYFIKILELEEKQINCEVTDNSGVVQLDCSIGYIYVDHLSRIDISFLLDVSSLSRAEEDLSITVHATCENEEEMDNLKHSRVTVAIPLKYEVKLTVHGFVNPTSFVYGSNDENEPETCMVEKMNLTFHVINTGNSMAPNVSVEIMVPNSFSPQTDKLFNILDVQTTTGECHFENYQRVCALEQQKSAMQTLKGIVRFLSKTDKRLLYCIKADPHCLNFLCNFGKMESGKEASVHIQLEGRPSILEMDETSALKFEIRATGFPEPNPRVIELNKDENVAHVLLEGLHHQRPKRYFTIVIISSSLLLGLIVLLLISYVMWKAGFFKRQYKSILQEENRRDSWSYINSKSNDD
T2 sequence (P26010 whole entry): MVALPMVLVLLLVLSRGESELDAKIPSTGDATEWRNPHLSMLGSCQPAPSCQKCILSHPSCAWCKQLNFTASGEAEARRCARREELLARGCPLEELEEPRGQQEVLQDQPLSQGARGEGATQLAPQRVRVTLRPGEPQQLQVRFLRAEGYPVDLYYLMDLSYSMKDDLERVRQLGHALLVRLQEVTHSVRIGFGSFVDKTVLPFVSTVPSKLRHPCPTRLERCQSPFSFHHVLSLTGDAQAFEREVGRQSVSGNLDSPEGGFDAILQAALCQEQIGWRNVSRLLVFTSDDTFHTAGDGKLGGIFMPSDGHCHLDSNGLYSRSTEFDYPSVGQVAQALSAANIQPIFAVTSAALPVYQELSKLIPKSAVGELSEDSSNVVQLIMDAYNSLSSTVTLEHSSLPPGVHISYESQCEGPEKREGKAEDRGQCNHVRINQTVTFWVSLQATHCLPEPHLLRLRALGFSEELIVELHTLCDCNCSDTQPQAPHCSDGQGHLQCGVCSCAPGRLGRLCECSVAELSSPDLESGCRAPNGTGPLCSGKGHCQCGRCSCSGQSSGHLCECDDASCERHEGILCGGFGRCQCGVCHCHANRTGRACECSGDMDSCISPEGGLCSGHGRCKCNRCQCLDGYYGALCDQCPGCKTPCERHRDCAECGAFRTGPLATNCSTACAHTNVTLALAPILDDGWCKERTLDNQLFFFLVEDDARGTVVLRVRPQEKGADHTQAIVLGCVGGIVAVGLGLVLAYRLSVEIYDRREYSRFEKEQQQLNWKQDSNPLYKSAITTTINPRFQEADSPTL

[4] = target: T1, Integrin alpha-4/beta-1; test: Inhibition of alpha4-beta1 (very late) antigen binding with VCAM-1 immunoglobulin plus 5% human plasma; format: cell-free

T1 sequence (P05556 whole entry, one chain of several): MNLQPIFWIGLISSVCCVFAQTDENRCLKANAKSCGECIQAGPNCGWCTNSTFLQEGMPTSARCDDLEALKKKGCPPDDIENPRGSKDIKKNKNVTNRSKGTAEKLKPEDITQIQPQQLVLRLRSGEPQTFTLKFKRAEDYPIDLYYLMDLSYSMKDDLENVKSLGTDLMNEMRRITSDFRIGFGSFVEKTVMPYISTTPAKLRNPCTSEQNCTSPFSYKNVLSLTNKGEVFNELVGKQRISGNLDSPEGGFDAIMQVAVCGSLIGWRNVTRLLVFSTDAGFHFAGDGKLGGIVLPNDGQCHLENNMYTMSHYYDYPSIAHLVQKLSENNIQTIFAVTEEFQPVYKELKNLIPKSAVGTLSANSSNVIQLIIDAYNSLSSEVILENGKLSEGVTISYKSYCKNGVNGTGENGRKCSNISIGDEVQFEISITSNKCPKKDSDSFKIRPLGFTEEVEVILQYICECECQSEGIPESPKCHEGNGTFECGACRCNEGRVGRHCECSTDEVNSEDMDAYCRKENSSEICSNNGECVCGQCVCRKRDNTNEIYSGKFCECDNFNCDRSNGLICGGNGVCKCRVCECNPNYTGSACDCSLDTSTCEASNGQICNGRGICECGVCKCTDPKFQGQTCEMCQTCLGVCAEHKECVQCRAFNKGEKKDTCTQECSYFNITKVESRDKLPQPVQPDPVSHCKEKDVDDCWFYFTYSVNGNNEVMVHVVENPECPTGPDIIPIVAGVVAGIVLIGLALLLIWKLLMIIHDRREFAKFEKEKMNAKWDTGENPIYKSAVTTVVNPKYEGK

SMILES | pIC50 [1] | Ratio [2] | pIC50 [3] | pIC50 [4]
COc1cccc(OC)c1-c1ccc(C[C@H](NC(=O)[C@@]2(C(C)C)CCCO2)C(=O)O)cc1 | 9.15 | 9 | 8.21 | 8.13
COc1cccc(OC)c1-c1ccc(C[C@H](NC(=O)[C@@]2(C(=O)C(C)C)CCCO2)C(=O)O)cc1 | 9.17 | 22 | 7.95 | –
COc1cccc(OC)c1-c1ccc(C[C@H](NC(=O)[C@@]2(c3nc4ccccc4o3)CCCO2)C(=O)O)cc1 | 9.38 | 897 | 6.42 | 8.62
COc1ccccc1-c1ccc(C[C@H](NC(=O)[C@@]2(c3cc(C(F)(F)F)cc(C(F)(F)F)c3)CCCO2)C(=O)O)cc1 | 8.34 | 108 | 6.30 | 5.96
COc1cccc(OC)c1-c1ccc(C[C@H](NC(=O)[C@@]2(c3cccc(N)c3)CCCO2)C(=O)O)cc1 | 9.04 | 29 | 7.58 | 8.25
CCOC(=O)[C@]1(C(=O)N[C@@H](Cc2ccc(-c3ccccc3OC)cc2)C(=O)O)CCCO1 | 8.39 | 13 | 7.29 | 7.72
COc1ccccc1-c1ccc(C[C@H](NC(=O)[C@@]2(c3ccc(Br)cc3)CCCO2)C(=O)O)cc1 | 8.44 | 64 | 6.63 | 7.28
COc1cccc(OC)c1-c1ccc(C[C@H](NC(=O)[C@@]2(CCO)CCCO2)C(=O)O)cc1 | 8.81 | 10 | 7.79 | 8.12
COc1cccc(OC)c1-c1ccc(C[C@H](NC(=O)[C@@]2(CCCCN(C)C)CCCO2)C(=O)O)cc1 | 7.79 | 14 | 6.64 | 7.64
COc1ccccc1-c1ccc(C[C@H](NC(=O)[C@@]2(c3ccccc3)CCCO2)C(=O)O)cc1 | 8.66 | 26 | 7.25 | –
COc1ccccc1-c1ccc(C[C@H](NC(=O)[C@@]2(c3ccc(C(C)(C)C)cc3)CCCO2)C(=O)O)cc1 | 8.74 | 55 | 7.00 | 7.54
COc1cccc(OC)c1-c1ccc(C[C@H](NC(=O)[C@@]2(CC(C)C)CCCO2)C(=O)O)cc1 | 8.94 | 19 | 7.65 | 8.40
COc1ccccc1-c1ccc(C[C@H](NC(=O)[C@@]2(c3cccc(C(F)(F)F)c3)CCCO2)C(=O)O)cc1 | 8.33 | 70 | 6.49 | 6.54
CCCC[C@]1(C(=O)N[C@@H](Cc2ccc(-c3c(OC)cccc3OC)cc2)C(=O)O)CCCO1 | 9.32 | 29 | 7.86 | 8.84
COc1ccccc1-c1ccc(C[C@H](NC(=O)[C@@]2(c3ccc(Cl)cc3)CCCO2)C(=O)O)cc1 | 8.39 | 67 | 6.56 | 7.34
COc1cccc(OC)c1-c1ccc(C[C@H](NC(=O)[C@@]2(c3ncc(C)s3)CCCO2)C(=O)O)cc1 | 9.51 | 47 | 7.84 | –
COc1ccccc1-c1ccc(C[C@H](NC(=O)[C@@]2(C(=O)N3CCN(C)CC3)CCCO2)C(=O)O)cc1 | 9.23 | 39 | 7.63 | 9.00

Continued by rising pIC50 [1], values first:

pIC50 [1] | Ratio [2] | pIC50 [3] | pIC50 [4] | SMILES
6.59 | 1 | 6.61 | 6.06 | COc1cccc(OC)c1-c1ccc(C[C@H](NC(=O)[C@@]2(CCCCO)CCCO2)C(=O)O)cc1
7.81 | 5 | 7.10 | 7.71 | COc1cccc(OC)c1-c1ccc(C[C@H](NC(=O)[C@@]2(CCN(C)C)CCCO2)C(=O)O)cc1
8.04 | 7 | 7.17 | – | COc1cccc(OC)c1-c1ccc(C[C@H](NC(=O)[C@@]2(CCCN(C)C)CCCO2)C(=O)O)cc1
8.21 | 60 | 6.43 | 6.46 | COc1ccccc1-c1ccc(C[C@H](NC(=O)[C@@]2(c3ccc(C)c(C)c3)CCCO2)C(=O)O)cc1
8.27 | 95 | 6.30 | 6.92 | COc1ccccc1-c1ccc(C[C@H](NC(=O)[C@@]2(c3ccc(C(F)(F)F)cc3)CCCO2)C(=O)O)cc1
8.37 | 11 | 7.34 | 7.32 | COc1ccccc1-c1ccc(C[C@H](NC(=O)[C@@]2(c3ccc(F)cc3)CCCO2)C(=O)O)cc1
8.41 | 12 | 7.34 | 7.22 | COc1ccccc1-c1ccc(C[C@H](NC(=O)[C@@]2(C)CCCO2)C(=O)O)cc1
8.47 | 225 | 6.13 | 7.83 | COc1ccc(CNC2CC(C)O[C@@]2(C)C(=O)N[C@@H](Cc2ccc(-c3c(OC)cccc3OC)cc2)C(=O)O)cc1 (some centres not stated)
8.59 | 57 | 6.83 | – | COc1cccc(OC)c1-c1ccc(C[C@H](NC(=O)[C@]2(C)OC(C)CC2N)C(=O)O)cc1 (some centres not stated)
8.67 | 17 | 7.45 | 8.47 | COc1cccc(OC)c1-c1ccc(C[C@H](NC(=O)[C@@]2(CCCO)CCCO2)C(=O)O)cc1
8.83 | – | – | 8.24 | COc1cc(OC)cc([C@]2(C(=O)N[C@@H](Cc3ccc(-c4c(OC)cccc4OC)cc3)C(=O)O)CCCO2)c1
8.88 | 17 | 7.64 | 8.35 | COc1ccccc1-c1ccc(C[C@H](NC(=O)[C@@]2(C(=O)N3CCCC3)CCCO2)C(=O)O)cc1
9.15 | 40 | 7.79 | 8.70 | COCC[C@]1(C(=O)N[C@@H](Cc2ccc(-c3c(OC)cccc3OC)cc2)C(=O)O)CCCO1
9.15 | 35 | 7.61 | 8.88 | COc1cccc(OC)c1-c1ccc(C[C@H](NC(=O)[C@]2(C)OC(C)CC2=O)C(=O)O)cc1 (some centres not stated)
9.21 | 35 | 7.66 | 8.90 | COCCCC[C@]1(C(=O)N[C@@H](Cc2ccc(-c3c(OC)cccc3OC)cc2)C(=O)O)CCCO1
9.26 | 95 | 7.28 | 8.32 | COc1cccc(OC)c1-c1ccc(C[C@H](NC(=O)[C@@]2(c3ccc(Cl)cc3)CCCO2)C(=O)O)cc1
9.27 | 16 | 8.07 | 9.00 | COc1ccccc1-c1ccc(C[C@H](NC(=O)[C@@]2(C(=O)N3CCOCC3)CCCO2)C(=O)O)cc1
9.33 | 97 | 7.34 | 8.62 | COc1cccc(OC)c1-c1ccc(C[C@H](NC(=O)[C@@]2(c3ccc(Cl)c([N+](=O)[O-])c3)CCCO2)C(=O)O)cc1
9.64 | 85 | 7.71 | 9.02 | COc1cccc(OC)c1-c1ccc(C[C@H](NC(=O)[C@@]2(c3cccc([N+](=O)[O-])c3)CCCO2)C(=O)O)cc1
